This is an account of results in US4931435A, “Agent with an antidepressant activity” (Boehringer Ingelheim KG, priority 1987, dated 1990).

For data set [1], the system named is ptosis induced by tetrabenazine. Nature of the data set: Inhibition of ptosis induced by tetrabenazine in the mouse. The class given is in vivo. To be noted: Control without tetrabenazine = 100%.
Another data set relates to isolated chicks. Nature of the data set: chick call test: distress call activation in isolated one day old chicks (antidepressant activity). It is filed as in vivo. The note with it: Placebo = 100%. The text has this:
The call frequency of isolated one day old chicks, which decreases in the course of the test, is used as an experimental behavioral model of manifestations of resignation in depression, The method has been validated by tests on numerous neurotropically active substances; it is distinguished by its highly reproducible selectivity for antidepressants which are capable of reactivating the decreased call rate as a function of dosage. [distress call activation in isolated chicks; A new behavioral model for antidepressants, E. Lehr, Psychopharmacol. 89. […] Neurol. Psychiat.

A further data set deals with mice. The note with it: mouse, in vivo. As for the experimental part: The test substances were dissolved in 0.9% NaCl solution.
**The animals in Group 2 were treated first with
1benzyl-4-aminomethyl-pyrrolidin-2-one FU and immediately afterwards
(about 10 to 15 seconds later) with imipramin.

The subject of data set [2] is Albino mice of the Chbb: NMRI strain. The note with it: group 1 (m and f), i.v., mouse, dosage 100. From the text:
Albino mice of the Chbb: NMRI strain
A 2% solution of 1-benzyl-4-aminomethyl-pyrrolidin-2-one fumarate and a 0.25% imipramin solution (pH=6.2) were used.

Regarding `CN(C)CCCN1c2ccccc2CCc2ccccc21` [Compound A, 10,11-dihydro-N,N-dimethyl-5H-dibenz[b,f]-azepin-5-propanamine, reference compound], the “Inhibition of ptosis induced by tetrabenazine” value in data set [1] (3 mg/kg p.o.) amounted to 12%. For the same molecule, in the data set on isolated chicks (10 mg/kg i.p.), the “Increase in call rate in the second hour” value was determined as 131%.
As for `NCC1CC(=O)N(Cc2ccccc2)C1` (stereo not drawn) [Compound B, 1-benzyl-4-aminomethyl-pyrrolidin-2-one], the “effect of pretreatment on the toxic effect of imipramin” value in the data set with mice is reported as “toxic effect of imipramin is reduced”. The Lethality dead/treated animals in data set [2] is listed as 0/10. Moreover, the “Inhibition of ptosis induced by tetrabenazine” value in data set [1] (3.5 mg/kg p.o.) was 48%. The “Increase in call rate in the second hour” value in the data set on isolated chicks (5 mg/kg i.p.) worked out at 284%.
